Experimental data: ChEMBL document CHEMBL2390923, “Synthesis of 7-oxabicyclo[2.2.1]hept-5-en-2-yl derivatives and their screening for antimicrobial and antioxidant properties” (2013)
≈ marks a conversion by molar mass, not a printed value.

Columns and labels:
Assay type in all cases: functional
[1] = tested on: Bacillus subtilis; test: Antibacterial activity against Bacillus subtilis at 125 mg/ml after 24 hrs by well diffusion assay; settings: read-out: DIZ
[2] = tested on: Bacillus subtilis; test: Antibacterial activity against Bacillus subtilis at 150 mg/ml after 24 hrs by well diffusion assay; settings: read-out: DIZ
[3] = tested on: Escherichia coli; test: Antibacterial activity against Escherichia coli at 125 mg/ml after 24 hrs by well diffusion assay; settings: read-out: DIZ
[4] = tested on: Staphylococcus aureus; test: Antibacterial activity against Staphylococcus aureus after 18 to 24 hrs by microdilution broth assay
[5] = tested on: Klebsiella pneumoniae; test: Antibacterial activity against Klebsiella pneumoniae at 150 mg/ml after 24 hrs by well diffusion assay; settings: read-out: DIZ
[6] = tested on: Klebsiella pneumoniae; test: Antibacterial activity against Klebsiella pneumoniae after 18 to 24 hrs by microdilution broth assay
[7] = tested on: Klebsiella pneumoniae; test: Antibacterial activity against Klebsiella pneumoniae at 125 mg/ml after 24 hrs by well diffusion assay; settings: read-out: DIZ
[8] = tested on: Escherichia coli; test: Antibacterial activity against Escherichia coli after 18 to 24 hrs by microdilution broth assay
[9] = tested on: Escherichia coli; test: Antibacterial activity against Escherichia coli at 150 mg/ml after 24 hrs by well diffusion assay; settings: read-out: DIZ
[10] = tested on: Radical scavenging activity; test: Antioxidant activity assessed as DPPH radical scavenging activity after 30 mins; parameters: concentration or dose not given beside the values
[11] = tested on: Klebsiella pneumoniae; test: Antibacterial activity against Klebsiella pneumoniae at 100 mg/ml after 24 hrs by well diffusion assay; settings: read-out: DIZ
[12] = tested on: Bacillus subtilis; test: Antibacterial activity against Bacillus subtilis at 100 mg/ml after 24 hrs by well diffusion assay; settings: read-out: DIZ
[13] = tested on: Vibrio cholerae; test: Antibacterial activity against Vibrio cholerae after 18 to 24 hrs by microdilution broth assay
[14] = tested on: Bacillus subtilis; test: Antibacterial activity against Bacillus subtilis after 18 to 24 hrs by microdilution broth assay
[15] = tested on: Staphylococcus aureus; test: Antibacterial activity against Staphylococcus aureus at 125 mg/ml after 24 hrs by well diffusion assay; settings: read-out: DIZ
[16] = tested on: Vibrio cholerae; test: Antibacterial activity against Vibrio cholerae at 150 mg/ml after 24 hrs by well diffusion assay; settings: read-out: DIZ
[17] = tested on: Vibrio cholerae; test: Antibacterial activity against Vibrio cholerae at 125 mg/ml after 24 hrs by well diffusion assay; settings: read-out: DIZ
[18] = tested on: Staphylococcus aureus; test: Antibacterial activity against Staphylococcus aureus at 150 mg/ml after 24 hrs by well diffusion assay; settings: read-out: DIZ
[19] = tested on: Escherichia coli; test: Antibacterial activity against Escherichia coli at 100 mg/ml after 24 hrs by well diffusion assay; settings: read-out: DIZ
[20] = tested on: Staphylococcus aureus; test: Antibacterial activity against Staphylococcus aureus at 100 mg/ml after 24 hrs by well diffusion assay; settings: read-out: DIZ
[21] = tested on: Vibrio cholerae; test: Antibacterial activity against Vibrio cholerae at 100 mg/ml after 24 hrs by well diffusion assay; settings: read-out: DIZ

SMILES | zone of inhibition at 150000 µg/mL [2] [mm] | zone of inhibition at 125000 µg/mL [3] [mm] | MIC [4] [µg/mL] | zone of inhibition at 150000 µg/mL [5] [mm] | MIC [6] [µg/mL] | zone of inhibition at 125000 µg/mL [7] [mm] | MIC [8] [µg/mL] | zone of inhibition at 150000 µg/mL [9] [mm] | inhibition [10] [%] | MIC [13] [µg/mL] | MIC [14] [µg/mL] | zone of inhibition at 125000 µg/mL [15] [mm] | zone of inhibition at 150000 µg/mL [16] [mm] | zone of inhibition at 150000 µg/mL [18] [mm] | zone of inhibition at 100000 µg/mL [19] [mm] | zone of inhibition at 100000 µg/mL [20] [mm] | also measured
CCC12C=CC(O1)C(C(=O)c1ccccc1)C2c1ccccc1 (stereo not drawn) | 18 | 14 | 625 (≈ 2050 µM) | 19 | 4 (≈ 13.1 µM) | 16 | 312 (≈ 1030 µM) | 15 | 58.9 | 1250 (≈ 4110 µM) | 312 (≈ 1030 µM) |  |  |  |  |  | zone of inhibition at 125000 µg/mL [1]: 16 mm; zone of inhibition at 100000 µg/mL [11]: 13 mm; zone of inhibition at 100000 µg/mL [12]: 12 mm
CCC12C=CC(O1)C(C(=O)c1ccc(Br)cc1)C2c1ccccc1 (stereo not drawn) | 17 | 16 | 1250 (≈ 3260 µM) | 16 | 78 (≈ 204 µM) | 14 | 78 (≈ 204 µM) | 17 | 32.6 | 312 (≈ 814 µM) | 78 (≈ 204 µM) | 13 | 11 | 17 | 12 | 11 | zone of inhibition at 125000 µg/mL [1]: 14 mm; zone of inhibition at 100000 µg/mL [11]: 11 mm; zone of inhibition at 125000 µg/mL [17]: 10 mm; zone of inhibition at 100000 µg/mL [12]: 12 mm
CCC12C=CC(O1)C(C(=O)c1ccccc1)C2c1ccccc1F (stereo not drawn) |  |  | 1250 (≈ 3880 µM) | 14 | 625 (≈ 1940 µM) | 13 | 1250 (≈ 3880 µM) | 12 | 18.1 | 625 (≈ 1940 µM) | 1250 (≈ 3880 µM) | 15 |  | 16 |  | 13 | zone of inhibition at 100000 µg/mL [11]: 10 mm
CCC12C=CC(O1)C(C(=O)c1ccccc1)C2c1ccc(OC)cc1 (stereo not drawn) |  |  | 1250 (≈ 3740 µM) |  | 625 (≈ 1870 µM) |  | 625 (≈ 1870 µM) |  | 15.1 | 625 (≈ 1870 µM) | 625 (≈ 1870 µM) | 11 | 17 | 13 |  |  | zone of inhibition at 125000 µg/mL [17]: 14 mm; zone of inhibition at 100000 µg/mL [21]: 12 mm
CCC12C=CC(O1)C(C(=O)c1ccccc1)C2c1ccc(Br)cc1 (stereo not drawn) | 12 | 14 | 156 (≈ 407 µM) | 12 | 156 (≈ 407 µM) | 11 | 312 (≈ 814 µM) | 18 | 30.5 | 625 (≈ 1630 µM) | 312 (≈ 814 µM) | 13 | 12 | 14 |  | 11 | zone of inhibition at 125000 µg/mL [17]: 11 mm
CCC12C=CC(O1)C(C(=O)c1ccccc1)C2c1ccc(F)cc1 (stereo not drawn) |  | 11 | 1250 (≈ 3880 µM) | 12 | 625 (≈ 1940 µM) |  | 625 (≈ 1940 µM) | 13 | 42.4 | 625 (≈ 1940 µM) | 625 (≈ 1940 µM) | 13 |  | 15 | 10 |  | 
CCC12C=CC(O1)C(C(=O)c1cccc(Br)c1)C2c1ccccc1 (stereo not drawn) |  | 12 | 625 (≈ 1630 µM) |  | 312 (≈ 814 µM) |  | 625 (≈ 1630 µM) | 14 | 36 | 625 (≈ 1630 µM) | 625 (≈ 1630 µM) |  | 12 |  |  |  | 
CCC12C=CC(O1)C(C(=O)c1ccccc1)C2c1cccc(Br)c1 (stereo not drawn) | 17 | 12 | 31 (≈ 80.9 µM) | 14 | 156 (≈ 407 µM) | 12 | 312 (≈ 814 µM) | 15 | 23.2 | 625 (≈ 1630 µM) | 312 (≈ 814 µM) | 12 | 11 | 15 |  | 11 | zone of inhibition at 125000 µg/mL [1]: 14 mm; zone of inhibition at 100000 µg/mL [12]: 11 mm
CCC12C=CC(O1)C(C(=O)c1ccccc1)C2c1cccc(OC)c1 (stereo not drawn) |  | 15 | 625 (≈ 1870 µM) | 13 | 312 (≈ 933 µM) | 12 | 625 (≈ 1870 µM) | 16 | 33.4 | 625 (≈ 1870 µM) | 625 (≈ 1870 µM) | 15 |  | 17 | 13 |  | 
Cc1cc(C(C)(C)C)c(O)c(C(C)(C)C)c1 |  |  |  |  |  |  |  |  | 58.4 |  |  |  |  |  |  |  | 
CCC12C=CC(O1)C(C(=O)c1ccccc1)C2c1ccccc1Br (stereo not drawn) |  | 14 | 1250 (≈ 3260 µM) | 11 | 625 (≈ 1630 µM) |  | 1250 (≈ 3260 µM) | 15 | 17.7 | 625 (≈ 1630 µM) | 1250 (≈ 3260 µM) | 14 |  | 16 | 11 | 13 | 
CCC12C=CC(O1)C(C(=O)c1ccccc1)C2c1ccc([N+](=O)[O-])cc1 (stereo not drawn) |  | 14 | 1250 (≈ 3580 µM) |  | 625 (≈ 1790 µM) |  | 1250 (≈ 3580 µM) | 14 | 21.6 | 1250 (≈ 3580 µM) | 1250 (≈ 3580 µM) |  |  | 13 | 12 |  | 
CCC12C=CC(O1)C(C(=O)c1ccccc1)C2c1ccc(C#N)cc1 (stereo not drawn) | 15 | 15 | 156 (≈ 474 µM) | 15 | 156 (≈ 474 µM) | 13 | 156 (≈ 474 µM) | 16 | 58.9 | 1250 (≈ 3790 µM) | 156 (≈ 474 µM) | 11 |  | 13 | 11 |  | zone of inhibition at 125000 µg/mL [1]: 13 mm; zone of inhibition at 100000 µg/mL [11]: 10 mm; zone of inhibition at 100000 µg/mL [12]: 11 mm
CCC12C=CC(O1)C(C(=O)c1ccccc1)C2c1ccc(Cl)cc1 (stereo not drawn) |  |  | 625 (≈ 1840 µM) | 15 | 156 (≈ 460 µM) | 11 | 312 (≈ 921 µM) |  | 35.5 | 625 (≈ 1840 µM) | 322 (≈ 950 µM) |  | 14 | 13 |  |  | zone of inhibition at 125000 µg/mL [17]: 13 mm; zone of inhibition at 100000 µg/mL [21]: 11 mm
